Data reported in ChEMBL document CHEMBL3132846 (Medchemcomm, 2014).

Tests used:
SiHa = assay: Cytotoxicity against human SiHa cells after 48 hrs by MTT assay; format: functional, cell-based
HeLa = assay: Cytotoxicity against human HeLa cells after 48 hrs by MTT assay; format: functional, cell-based
HL-60 = assay: Cytotoxicity against human HL60 cells after 48 hrs by MTT assay; format: functional, cell-based; conditions: HL-60, 48 h
A549 = assay: Cytotoxicity against human A549 cells after 48 hrs by MTT assay; format: functional, cell-based; conditions: A549, 48 h
MCF7 = assay: Cytotoxicity against human MCF7 cells after 48 hrs by MTT assay; format: functional, cell-based; conditions: MCF7, 48 h
BeWo = assay: Cytotoxicity against human Bewo cells after 48 hrs by MTT assay; format: functional, cell-based
Ishikawa = assay: Cytotoxicity against human Ishikawa cells after 48 hrs by MTT assay; format: functional, cell-based
[1] = Cytotoxicity against human Bel7402 cells after 48 hrs by MTT assay; format: functional, cell-based; conditions: Bel-7402, 48 h
[2] = Cytotoxicity against human BGC823 cells after 48 hrs by MTT assay; format: functional, cell-based; conditions: BGC-823, 48 h
[3] = Cytotoxicity against human NCI-460 cells after 48 hrs by MTT assay; format: functional, cell-based; conditions: NCI-460, 48 h
[4] = Cytotoxicity against human SKBR3 cells after 48 hrs by MTT assay; format: functional, cell-based; conditions: SK-BR-3, 48 h
[5] = Cytotoxicity against human JeKo1 cells after 48 hrs by MTT assay; format: functional, cell-based; conditions: JeKo-1, 48 h
CCRF S-180 = assay: Antitumor activity against mouse S180 cells allografted in ICR mouse assessed as tumor growth inhibition at 200 mg/kg, ig qd administered for 6 days relative to vehicle-treated control; format: functional; conditions: CCRF S-180, po, 144 h, route intragastric, read-out: TGI
Mus musculus = assay: Toxicity in ICR mouse allografted with mouse S180 cells assessed as body weight loss at 200 mg/kg, ig qd administered for 6 days relative to vehicle-treated control; format: organism-based, CCRF S-180; set-up: dose 200 mg/kg, route intragastric; conditions: in vivo, po, 144 h
HUVEC = assay: Cytotoxicity against HUVEC assessed as mitochondrial metabolism after 48 hrs by MTT assay; format: cell-based, Homo sapiens; conditions: Homo sapiens, HUVEC

Cc1ccc2c(=O)c3cccc(CC(=O)Nc4ccc(F)c(Cl)c4)c3oc2c1C
IC50 (SiHa): 32.4 µM | IC50 (HeLa): 94.2 µM | IC50 (HL-60): 76.1 µM | IC50 (A549): 25.8 µM | IC50 (MCF7): > 100 µM | IC50 (BeWo): > 100 µM | IC50 (Ishikawa): > 100 µM

COc1ccc(/C=N/NC(=O)Cc2cccc3c(=O)c4ccc(C)c(C)c4oc23)cc1O
IC50 (SiHa): > 100 µM | IC50 [1]: > 100 µM | IC50 (HeLa): > 100 µM | IC50 [2]: > 100 µM | IC50 (HL-60): > 100 µM | IC50 (A549): 54.9 µM | IC50 (MCF7): > 100 µM | IC50 (BeWo): > 100 µM | IC50 [3]: > 100 µM | IC50 (Ishikawa): > 100 µM

C/C=C/CC(=O)NNC(=O)Cc1cccc2c(=O)c3ccc(C)c(C)c3oc12
IC50 [4]: > 10 µg/mL | IC50 [5]: > 10 µg/mL

Cc1ccc2c(=O)c3cccc(CC(=O)Nc4ccc(Cl)cn4)c3oc2c1C
IC50 (SiHa): > 100 µM | IC50 (HeLa): > 100 µM | IC50 (HL-60): 80.9 µM | IC50 (A549): > 100 µM | IC50 (MCF7): 95.9 µM | IC50 (BeWo): > 100 µM | IC50 (Ishikawa): > 100 µM

C#CCOC(=O)Cc1cccc2c(=O)c3ccc(C)c(C)c3oc12
IC50 (SiHa): > 100 µM | IC50 [1]: > 100 µM | IC50 (HeLa): > 100 µM | IC50 [2]: 81.5 µM | IC50 (HL-60): > 100 µM | IC50 [4]: > 10 µg/mL | IC50 (A549): > 100 µM | IC50 (MCF7): > 100 µM | IC50 (BeWo): > 100 µM | IC50 [3]: > 100 µM | IC50 [5]: > 10 µg/mL | IC50 (Ishikawa): > 100 µM

Cc1ccc2c(=O)c3cccc(CC(=O)N/N=C/c4ccc(O)cc4)c3oc2c1C
IC50 (SiHa): > 100 µM | IC50 (HeLa): > 100 µM | IC50 (HL-60): > 100 µM | IC50 (A549): 35.9 µM | IC50 (MCF7): > 100 µM | IC50 (BeWo): 73.7 µM | IC50 (Ishikawa): > 100 µM

COc1cccc(/C=N/NC(=O)Cc2cccc3c(=O)c4ccc(C)c(C)c4oc23)c1
IC50 (SiHa): > 100 µM | IC50 [1]: > 100 µM | IC50 (HeLa): > 100 µM | IC50 [2]: > 100 µM | IC50 (HL-60): > 100 µM | IC50 (A549): 50.7 µM | IC50 (MCF7): > 100 µM | IC50 (BeWo): 84.9 µM | IC50 [3]: > 100 µM | IC50 (Ishikawa): > 100 µM

Cc1ccc2c(=O)c3cccc(CC(=O)Nc4ccc([N+](=O)[O-])c(C(F)(F)F)c4)c3oc2c1C
IC50 (SiHa): 63.2 µM | IC50 (HeLa): > 100 µM | IC50 (HL-60): 93.8 µM | IC50 (A549): > 100 µM | IC50 (MCF7): > 100 µM | IC50 (BeWo): > 100 µM | IC50 (Ishikawa): > 100 µM

CCOC(=O)CNC(=O)Cc1cccc2c(=O)c3ccc(C)c(C)c3oc12
IC50 (SiHa): > 100 µM | IC50 (HeLa): > 100 µM | IC50 (HL-60): > 100 µM | IC50 (A549): 42.9 µM | IC50 (MCF7): 46.4 µM | IC50 (BeWo): > 100 µM | IC50 (Ishikawa): 61.9 µM

COc1ccc(/C=C\c2cc(OC)c(OC)c(OC)c2)cc1O [COMBRETASTATIN A4]
IC50 (SiHa): > 100 µM | IC50 (HeLa): 14.8 µM | IC50 (HL-60): < 0.03 µM | IC50 (MCF7): 25.5 µM | IC50 (BeWo): 12.7 µM | IC50 (Ishikawa): 20.1 µM

COc1c(O)ccc(/C=N/NC(=O)Cc2cccc3c(=O)c4ccc(C)c(C)c4oc23)c1[N+](=O)[O-]
IC50 (A549): > 100 µM

Cc1ccc2c(=O)c3cccc(CC(=O)N/N=C/c4ccccc4O)c3oc2c1C
IC50 (SiHa): > 100 µM | IC50 [1]: > 100 µM | IC50 (HeLa): > 100 µM | IC50 [2]: > 100 µM | IC50 (HL-60): 52.8 µM | IC50 [4]: > 10 µg/mL | IC50 (A549): 21.4 µM | IC50 (MCF7): > 100 µM | IC50 (BeWo): 67.2 µM | IC50 [3]: > 100 µM | IC50 [5]: > 10 µg/mL | IC50 (Ishikawa): > 100 µM

CCOC(=O)c1ccc(NC(=O)Cc2cccc3c(=O)c4ccc(C)c(C)c4oc23)cc1
IC50 (SiHa): > 100 µM | IC50 [1]: > 100 µM | IC50 (HeLa): > 100 µM | IC50 [2]: > 100 µM | IC50 (HL-60): 90.9 µM | IC50 (A549): 39.6 µM | IC50 (MCF7): > 100 µM | IC50 (BeWo): 45.5 µM | IC50 [3]: > 100 µM | IC50 (Ishikawa): > 100 µM

CCOC(=O)Cc1cccc2c(=O)c3ccc(C)c(C)c3oc12
inhibition in vivo at 200 mg/kg (CCRF S-180): 4.04% | Activity (Mus musculus): 8.5%

COc1ccc(/C=N/NC(=O)Cc2cccc3c(=O)c4ccc(C)c(C)c4oc23)cc1
IC50 (SiHa): > 100 µM | IC50 (HeLa): > 100 µM | IC50 (HL-60): > 100 µM | IC50 (A549): > 100 µM | IC50 (MCF7): > 100 µM | IC50 (BeWo): > 100 µM | IC50 (Ishikawa): 91.2 µM

CCC/C=C/C(=O)NNC(=O)Cc1cccc2c(=O)c3ccc(C)c(C)c3oc12
IC50 [4]: > 10 µg/mL | IC50 [5]: > 10 µg/mL

COc1cc(/C=N/NC(=O)Cc2cccc3c(=O)c4ccc(C)c(C)c4oc23)ccc1O
IC50 (A549): > 100 µM

Cc1ccc2c(=O)c3cccc(CC(=O)Nc4ccccc4)c3oc2c1C
IC50 (SiHa): > 100 µM | IC50 [1]: > 100 µM | inhibition in vivo at 200 mg/kg (CCRF S-180): 18.4% | Activity (Mus musculus): 10.2% | IC50 (HeLa): > 100 µM | IC50 [2]: > 100 µM | IC50 (HL-60): 4.59 µM | IC50 (A549): 77.6 µM | IC50 (HUVEC): > 20 µM | IC50 (MCF7): > 100 µM | IC50 (BeWo): > 100 µM | IC50 [3]: > 100 µM | IC50 (Ishikawa): > 100 µM

Cc1ccc2c(=O)c3cccc(CC(=O)N/N=C/c4ccc(O)c(O)c4)c3oc2c1C
IC50 (A549): > 100 µM

Cc1ccc2c(=O)c3cccc(CC(=O)N/N=C/c4cc(Cl)ccc4O)c3oc2c1C
IC50 (SiHa): > 100 µM | IC50 [1]: > 100 µM | IC50 (HeLa): 36.2 µM | IC50 [2]: > 100 µM | IC50 (HL-60): 20.8 µM | IC50 [4]: > 10 µg/mL | IC50 (A549): 11.5 µM | IC50 (HUVEC): > 20 µM | IC50 (MCF7): > 100 µM | IC50 (BeWo): 76.4 µM | IC50 [3]: > 100 µM | IC50 [5]: > 10 µg/mL | IC50 (Ishikawa): 68.4 µM

CCOC(=O)CCNC(=O)Cc1cccc2c(=O)c3ccc(C)c(C)c3oc12
IC50 (SiHa): 98 µM | IC50 [1]: > 100 µM | IC50 (HeLa): > 100 µM | IC50 [2]: 76.4 µM | IC50 (HL-60): 79.9 µM | IC50 (A549): 35 µM | IC50 (MCF7): 40.6 µM | IC50 (BeWo): 26.2 µM | IC50 [3]: > 100 µM | IC50 (Ishikawa): > 100 µM

CCCNC(=O)Cc1cccc2c(=O)c3ccc(C)c(C)c3oc12
IC50 (SiHa): 92 µM | IC50 [1]: > 100 µM | inhibition in vivo at 200 mg/kg (CCRF S-180): 25.6% | Activity (Mus musculus): 10.32% | IC50 (HeLa): > 100 µM | IC50 [2]: > 100 µM | IC50 (HL-60): > 100 µM | IC50 (A549): 28.9 µM | IC50 (MCF7): > 100 µM | IC50 (BeWo): > 100 µM | IC50 [3]: > 100 µM | IC50 (Ishikawa): > 100 µM

Cc1ccc2c(=O)c3cccc(CC(=O)N/N=C/c4ccc5c(c4)OCO5)c3oc2c1C
IC50 (SiHa): > 100 µM | IC50 [1]: > 100 µM | IC50 (HeLa): > 100 µM | IC50 [2]: > 100 µM | IC50 (HL-60): > 100 µM | IC50 (A549): 86.8 µM | IC50 (MCF7): > 100 µM | IC50 (BeWo): > 100 µM | IC50 [3]: > 100 µM | IC50 (Ishikawa): > 100 µM

COc1cc(/C=N/NC(=O)Cc2cccc3c(=O)c4ccc(C)c(C)c4oc23)cc(OC)c1OC
IC50 (SiHa): > 100 µM | IC50 (HeLa): > 100 µM | IC50 (HL-60): > 100 µM | IC50 (A549): 15.7 µM | IC50 (MCF7): > 100 µM | IC50 (BeWo): > 100 µM | IC50 (Ishikawa): > 100 µM

CCCCCC(=O)NNC(=O)Cc1cccc2c(=O)c3ccc(C)c(C)c3oc12
IC50 [4]: > 10 µg/mL | IC50 [5]: > 10 µg/mL

CCCCNC(=O)Cc1cccc2c(=O)c3ccc(C)c(C)c3oc12
IC50 (SiHa): > 100 µM | IC50 (HeLa): > 100 µM | IC50 (HL-60): 44.7 µM | IC50 (A549): 46.9 µM | IC50 (MCF7): 43.8 µM | IC50 (BeWo): > 100 µM | IC50 (Ishikawa): > 100 µM

CC(C)=CCC(=O)NNC(=O)Cc1cccc2c(=O)c3ccc(C)c(C)c3oc12
IC50 [4]: > 10 µg/mL | IC50 [5]: > 10 µg/mL
